The source of these data is patent US20200339548A1, “PYRIMIDINE DERIVATIVES AND THEIR USE FOR THE TREATMENT OF CANCER” (Adorx Therapeutics Limited, priority 2017, published 2020).

Read-outs that look alike come from different tables or passages of the source.

What is called Ki is the equilibrium dissociation constant of an inhibitor or competing ligand from its target. The IC50 is the midpoint of a concentration-inhibition curve.

The target of one test is T1, Adenosine A2a receptor (Homo sapiens, UniProt P29274).
T1 construct: expressed in transfected cells; host or cells: CHO cell membranes
In words: Adenosine receptor TR-FRET binding assay, A2a. As to conditions: displacement of 100 nM CA200645, CHO cell membranes. The method in brief: (§1)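 Competition TR-FRET binding in CHO cell membranes expressing terbium-labelled human receptors, displacing fluorescent XAC (CA200645; 30 nM for A2b, 100 nM for A1, A2a, A3); 2 h at room temperature with saponin buffer, 1% DMSO. 665/620 nm ratio; non-specific with 10 μM XAC; Ki by Cheng–Prusoff from IC50.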
On the technique in general: In TR-FRET formats the signal depends on donor and acceptor labels being close together.

For the next test, the target named is T2, Adenosine A2b receptor (Homo sapiens, UniProt P29275).
T2 construct: expressed in transfected cells; host or cells: CHO cell membranes
T2 sequence (P29275 1-332): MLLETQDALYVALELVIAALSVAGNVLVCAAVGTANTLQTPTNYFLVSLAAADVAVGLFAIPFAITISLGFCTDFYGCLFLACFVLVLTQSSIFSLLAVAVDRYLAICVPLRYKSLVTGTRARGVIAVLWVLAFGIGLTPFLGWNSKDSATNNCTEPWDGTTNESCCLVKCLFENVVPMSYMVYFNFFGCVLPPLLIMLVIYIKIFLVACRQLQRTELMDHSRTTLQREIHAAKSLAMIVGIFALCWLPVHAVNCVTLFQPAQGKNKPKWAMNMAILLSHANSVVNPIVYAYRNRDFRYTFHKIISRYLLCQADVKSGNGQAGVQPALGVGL
Nature of the test: Adenosine receptor TR-FRET binding assay, A2b. The note with it: Table 9, further testing; displacement of 30 nM CA200645, CHO cell membranes. In outline: as §1

The next test has as its target T3, Adenosine A1 receptor (Homo sapiens, UniProt P30542).
T3 construct: expressed in transfected cells; host or cells: CHO cell membranes
T3 sequence (P30542 1-326): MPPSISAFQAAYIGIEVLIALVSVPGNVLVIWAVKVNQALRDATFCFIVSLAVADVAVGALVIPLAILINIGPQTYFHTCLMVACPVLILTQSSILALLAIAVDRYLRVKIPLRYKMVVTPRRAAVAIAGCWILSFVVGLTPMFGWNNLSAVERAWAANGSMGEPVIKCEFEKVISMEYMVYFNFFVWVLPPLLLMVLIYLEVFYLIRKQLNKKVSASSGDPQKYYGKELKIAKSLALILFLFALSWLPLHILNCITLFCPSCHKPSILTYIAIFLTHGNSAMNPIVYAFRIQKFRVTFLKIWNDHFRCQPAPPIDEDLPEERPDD
Nature of the test: Adenosine receptor TR-FRET binding assay, A1. The note with it: Table 9, further testing; displacement of 100 nM CA200645, CHO cell membranes. The method in brief: as §1

Another test concerns the target T4, Adenosine A3 receptor (Homo sapiens, UniProt P0DMS8).
T4 construct: expressed in transfected cells; host or cells: CHO cell membranes
T4 sequence (P0DMS8 1-318): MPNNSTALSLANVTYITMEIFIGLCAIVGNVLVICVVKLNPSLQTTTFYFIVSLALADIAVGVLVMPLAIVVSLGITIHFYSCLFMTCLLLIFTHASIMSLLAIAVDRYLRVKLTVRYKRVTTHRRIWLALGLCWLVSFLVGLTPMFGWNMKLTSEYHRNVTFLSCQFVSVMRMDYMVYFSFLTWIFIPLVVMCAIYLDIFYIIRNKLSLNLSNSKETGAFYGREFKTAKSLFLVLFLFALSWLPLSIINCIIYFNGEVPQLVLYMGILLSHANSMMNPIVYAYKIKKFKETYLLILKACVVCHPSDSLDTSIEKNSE
In words: Adenosine receptor TR-FRET binding assay, A3. In outline:
as §1

A further test has as its system Human PBMCs. In words: CD3/CD28 stimulated IL-2 release NECA reversal assay. It counts as cell-based. The note with it: Homo sapiens, PBMC, read-out: IL-2 release NECA reversal IC50 (nM), 1 uM NECA, 24 hours. On the procedure:
Blood is drawn from healthy volunteers using sodium citrate as the anticoagulant (0.3% final concentration). […] 50 μl diluted compound mix is added to the cells, to obtain final concentrations of 1 ug/ml CD28 antibody, 1 uM NECA and 0.003-10 μM adenosine receptor antagonist. Assay plates are incubated for 24 hours at 37° C. in a humidified incubator.

[1] abbreviates: Table 9, further testing, displacement of 100 nM CA200645, CHO cell membranes, read-out: A3 Ki.

T1 sequence (P29274 whole entry): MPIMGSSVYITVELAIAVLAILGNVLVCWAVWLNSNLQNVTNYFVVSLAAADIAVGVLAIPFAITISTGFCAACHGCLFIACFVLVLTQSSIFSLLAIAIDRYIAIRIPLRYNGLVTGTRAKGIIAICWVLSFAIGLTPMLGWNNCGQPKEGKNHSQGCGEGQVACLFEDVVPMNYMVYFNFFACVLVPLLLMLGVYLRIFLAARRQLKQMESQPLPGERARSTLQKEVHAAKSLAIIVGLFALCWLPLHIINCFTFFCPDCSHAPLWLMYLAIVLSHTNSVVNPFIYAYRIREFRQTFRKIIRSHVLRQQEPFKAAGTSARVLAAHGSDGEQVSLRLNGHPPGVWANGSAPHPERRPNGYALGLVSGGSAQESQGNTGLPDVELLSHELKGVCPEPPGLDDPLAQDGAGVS

For the molecule `COc1nc(-c2ccco2)nc(N)c1C(=O)NCc1ncccc1C(F)(F)F` [Example 18.1, 4-Amino-2-(2-furyl)-6-methoxy-N-[[3-(trifluoromethyl)-2-pyridyl]methyl]pyrimidine-5-carboxamide], the Ki at Adenosine A2a receptor (Table 9, further testing) stood at 0.23 nM; on Adenosine A2b receptor, 495 nM; on Adenosine A1 receptor, 176 nM; on Adenosine A3 receptor (setting [1]), 149 nM. The IC50 with Human PBMCs came out at 28 nM.
On to `CCn1ccnc1CNC(=O)c1cnc(-c2cccc(F)c2)nc1N` [Example 10.14, 4-Amino-N-[(1-ethylimidazol-2-yl)methyl]-2-(3-fluorophenyl)pyrimidine-5-carboxamide], for which the inhibition constant (Ki) at Adenosine A2a receptor (Table 8, Cheng and Prusoff) came out at 42 nM; at Adenosine A2a receptor (Table 9, further testing) it was 42 nM; on Adenosine A2b receptor it was 1140 nM; at Adenosine A1 receptor it was 159 nM; at Adenosine A3 receptor (setting [1]) it was 609 nM. Moreover, the IC50 in the test on Human PBMCs worked out at 1240 nM.
For `Cc1cccnc1CNC(=O)c1c(N)nc(-c2ccco2)nc1OC[C@@H](C)O` [Example 20.13, 4-Amino-2-(2-furyl)-6-[(2R)-2-hydroxypropoxy]-N-[(3-methyl-2-pyridyl)methyl]pyrimidine-5-carboxamide], the Ki on Adenosine A2a receptor (Table 9, further testing) amounted to 0.099 nM; at Adenosine A2b receptor, 611 nM; on Adenosine A1 receptor, 9 nM; at Adenosine A3 receptor (setting [1]), 14 nM. Besides, in the test on Human PBMCs, the IC50 was 19 nM.
As for `COc1ccccc1CNC(=O)c1cnc(-c2cccc(F)c2)nc1N` [Example 10.8, 4-Amino-2-(3-fluorophenyl)-N-[(2-methoxyphenyl)methyl]pyrimidine-5-carboxamide], the inhibitory constant (Ki) on Adenosine A2a receptor (Table 8, Cheng and Prusoff) was 27 nM; at Adenosine A2a receptor (Table 9, further testing), 27 nM; at Adenosine A2b receptor, 1750 nM; at Adenosine A1 receptor it was 143 nM; at Adenosine A3 receptor (setting [1]), 230 nM. The 50% inhibitory concentration (IC50) with Human PBMCs amounted to 2000 nM.
With `CC(C)n1ncnc1CNC(=O)c1cnc(-c2cccc(F)c2)nc1N` [Example 10.15, 4-Amino-2-(3-fluorophenyl)-N-[(2-isopropyl-1,2,4-triazol-3-yl)methyl]pyrimidine-5-carboxamide], the Ki on Adenosine A2a receptor (Table 8, Cheng and Prusoff) was found to be 34 nM; on Adenosine A2a receptor (Table 9, further testing), 34 nM; on Adenosine A2b receptor it was 1280 nM; on Adenosine A1 receptor, 90 nM; on Adenosine A3 receptor (setting [1]), 2510 nM. For the same molecule, the IC50 with Human PBMCs was found to be 1290 nM.
As to `Nc1nc(-c2ccco2)ncc1C(=O)NCc1ncccc1Cl` [Example 5.21, 4-Amino-N-[(3-chloro-2-pyridyl)methyl]-2-(2-furyl)pyrimidine-5-carboxamide], the Ki on Adenosine A2a receptor (Table 8, Cheng and Prusoff) was determined as 1.5 nM; on Adenosine A2a receptor (Table 9, further testing), 1.5 nM; at Adenosine A2b receptor, 1160 nM; at Adenosine A1 receptor, 1850 nM; at Adenosine A3 receptor, 1190 nM. Also, the IC50 in the test with Human PBMCs was 123 nM.
On to `Nc1nc(-c2cccc(F)c2)ncc1C(=O)NCc1c(Cl)cccc1Cl` [Example 10.6, 4-Amino-N-[(2,6-dichlorophenyl)methyl]-2-(3-fluorophenyl)pyrimidine-5-carboxamide], for which the inhibition constant (Ki) at Adenosine A2a receptor (Table 8, Cheng and Prusoff) came out at 32 nM; on Adenosine A2a receptor (Table 9, further testing), 32 nM; at Adenosine A2b receptor, 1310 nM; on Adenosine A1 receptor, 231 nM; at Adenosine A3 receptor (setting [1]), 160 nM. Also, the IC50 with Human PBMCs came out at 685 nM.
On to `Nc1nc(-c2ccco2)ncc1C(=O)NCc1ccccc1F` [Example 5.18, 4-Amino-N-[(2-fluorophenyl)methyl]-2-(2-furyl)pyrimidine-5-carboxamide], for which the Ki at Adenosine A2a receptor (Table 8, Cheng and Prusoff) was 3.8 nM; at Adenosine A2a receptor (Table 9, further testing), 3.3 nM; at Adenosine A2b receptor, 215 nM; on Adenosine A1 receptor, 1760 nM; at Adenosine A3 receptor (setting [1]), 1940 nM. Also, the half-maximal inhibitory concentration (IC50) with Human PBMCs was determined as 230 nM.
Take `Cc1cccnc1CNC(=O)c1nnc(-c2ccco2)nc1N` [Example 2, 5-Amino-3-(2-furyl)-N-[(3-methyl-2-pyridyl)methyl]-1,2,4-triazine-6-carboxamide]: the inhibition constant (Ki) was found to be 0.9 nM on Adenosine A2a receptor (Table 8, Cheng and Prusoff); 0.79 nM on Adenosine A2a receptor (Table 9, further testing); 95 nM on Adenosine A2b receptor; 318 nM on Adenosine A1 receptor; 50 nM at Adenosine A3 receptor (setting [1]). Further, the IC50 in the test on Human PBMCs came out at 408 nM.
Take `COc1nc(-c2ccco2)nc(N)c1C(=O)NCc1ncccc1C` [Example 18, 4-Amino-2-(2-furyl)-6-methoxy-N-[(3-methyl-2-pyridyl)methyl]pyrimidine-5-carboxamide]: the inhibition constant Ki is 1.1 nM on Adenosine A2a receptor (Table 8, Cheng and Prusoff); 0.64 nM at Adenosine A2a receptor (Table 9, further testing); 231 nM at Adenosine A2b receptor; 202 nM at Adenosine A1 receptor; 201 nM at Adenosine A3 receptor (setting [1]). The IC50 in the test with Human PBMCs stood at 37 nM.
As for `Nc1nc(-c2cccc(F)c2)ncc1C(=O)NCc1ccccc1O` [Example 10.1, 4-Amino-2-(3-fluorophenyl)-N-[(2-hydroxyphenyl)methyl]pyrimidine-5-carboxamide], the inhibitory constant (Ki) at Adenosine A2a receptor (Table 8, Cheng and Prusoff) came out at 13 nM; on Adenosine A2a receptor (Table 9, further testing), 13 nM; on Adenosine A2b receptor it was 54 nM; at Adenosine A1 receptor it was 93 nM; at Adenosine A3 receptor (setting [1]) it was 421 nM. Also, in the test with Human PBMCs, the IC50 amounted to 216 nM.
For the molecule `Nc1nc(-c2ccco2)ncc1C(=O)NCc1ccccc1O` [Example 11.2, 4-amino-2-(2-furyl)-N-[(2-hydroxyphenyl)methyl]pyrimidine-5-carboxamide], the Ki on Adenosine A2a receptor (Table 8, Cheng and Prusoff) was determined as 1.2 nM; on Adenosine A2a receptor (Table 9, further testing), 0.71 nM; on Adenosine A2b receptor it was 50 nM; at Adenosine A1 receptor it was 787 nM. For the same molecule, the IC50 in the test with Human PBMCs amounted to 71 nM.
Take `Nc1nc(-c2ccco2)ncc1C(=O)NCc1c(Cl)cccc1Cl` [Example 5.16, 4-Amino-N-[(2,6-dichlorophenyl)methyl]-2-(2-furyl)pyrimidine-5-carboxamide]: the inhibition constant (Ki) turned out to be 0.93 nM on Adenosine A2a receptor (Table 8, Cheng and Prusoff); 0.64 nM at Adenosine A2a receptor (Table 9, further testing); 297 nM at Adenosine A2b receptor; 1350 nM on Adenosine A1 receptor. Moreover, the IC50 with Human PBMCs worked out at 102 nM.
Regarding `Cn1ncnc1CNC(=O)c1c(N)nc(-c2cccc(C#N)c2)nc1OCCF` [Example 24.7, 4-Amino-2-(3-cyanophenyl)-6-(2-fluoroethoxy)-N-[(2-methyl-1,2,4-triazol-3-yl)methyl]pyrimidine-5-carboxamide], the Ki on Adenosine A2a receptor (Table 9, further testing) came out at 8.1 nM; on Adenosine A1 receptor, 145 nM; at Adenosine A3 receptor (setting [1]), 1610 nM. The IC50 in the test on Human PBMCs stood at 212 nM.
With `CCOc1cccc(F)c1CNC(=O)c1cnc(-c2cccc(F)c2)nc1N` [Example 5.3, 4-Amino-N-[(2-ethoxy-6-fluoro-phenyl)methyl]-2-(3-fluorophenyl)pyrimidine-5-carboxamide], the Ki on Adenosine A2a receptor (Table 8, Cheng and Prusoff) stood at 20 nM; on Adenosine A2a receptor (Table 9, further testing), 20 nM; on Adenosine A2b receptor, 341 nM. In the test with Human PBMCs, the concentration for half-maximal inhibition (IC50) is 1540 nM.
Consider `COc1cccc(F)c1CNC(=O)c1cnc(-c2cccc(F)c2)nc1N` [Example 5.2, 4-Amino-N-[(2-fluoro-6-methoxy-phenyl)methyl]-2-(3-fluorophenyl)pyrimidine-5-carboxamide], for which the Ki at Adenosine A2a receptor (Table 8, Cheng and Prusoff) amounted to 20 nM; at Adenosine A2a receptor (Table 9, further testing), 20 nM; at Adenosine A2b receptor, 113 nM; at Adenosine A1 receptor, 66 nM. Moreover, the half-inhibitory concentration (IC50) with Human PBMCs was 1920 nM.
On to `Nc1nc(-c2ccco2)ncc1C(=O)NC1CCc2ccccc21` (stereo not drawn) [Example 5.23, 4-Amino-2-(2-furyl)-N-indan-1-yl-pyrimidine-5-carboxamide], for which the Ki at Adenosine A2a receptor (Table 8, Cheng and Prusoff) turned out to be 10 nM; on Adenosine A2a receptor (Table 9, further testing), 10 nM; at Adenosine A1 receptor it was 4750 nM. For the same molecule, in the test on Human PBMCs, the half-inhibitory concentration (IC50) came out at 381 nM.
As to `Nc1nc(-c2ccco2)ncc1C(=O)NC1Cc2ccccc2C1` [Example 5.24, 4-Amino-2-(2-furyl)-N-indan-2-yl-pyrimidine-5-carboxamide], the Ki at Adenosine A2a receptor (Table 8, Cheng and Prusoff) was found to be 2.4 nM; on Adenosine A2a receptor (Table 9, further testing), 2.6 nM; at Adenosine A2b receptor, 1600 nM; at Adenosine A1 receptor, 1270 nM. Moreover, the half-inhibitory concentration (IC50) in the test with Human PBMCs turned out to be 364 nM.
